What was measured:
[1] = Preformulation study: solubility of dolutegravir sodium in water; format: physicochemical; settings: preformulation studies
Experimental: Preformulation studies of dolutegravir sodium were performed to know the physical appearance and organoleptic properties.

[2] = In vitro drug dissolution, USP Type II apparatus; format: physicochemical
Experimental: In vitro drug dissolution studies 01 In vitro dissolution studies of the pure dolutegravir (PD) and its aquasomal formulations (F1 to F6) were carried out using USP-Type II dissolution apparatus. 900 ml of pH 6.8 phosphate buffer was used as dissolution media and temperature was maintained at 37° C.±0.5° C. with paddle rotation speed at 50 rpm. Aliquots of 5 ml were withdrawn at various intervals and were replaced with same quantity of fresh dissolution medium to maintain the sink condition. Samples were filtered through wattman filter paper and analysed UV—Vis spectrophotometrically at 259.80 nm. The dissolution experiments were conducted in triplicate and the cumulative percentage of drug release was calculated. […] Dissolution efficiency (DE) values were calculated as per Khan^1 and T50 (time taken for 50% dissolution) values were recorded from the dissolution profiles.
A comparative in vitro drug release study was performed in pH 6.8 phosphate buffer for pure dolutegravir sodium (PD) and all designed formulations (F1-F6), the data was shown in Table 7. The dissolution experiments were conducted in triplicate. Dissolution efficiency (DE5) values were calculated as per Khan^1. T50 (time taken for 50% dissolution) values were recorded from the dissolution profiles.
The dissolution data of formulations PD and dolutegravir aquasomes were fitted into mathematical models such as zero order, first order and Hixson Crowell models kinetics and the plots were shown in Table No: 8. The release kinetics of pure drug (PD) and dolutegravir aquasomes follows zero order as well as Hixson Crowell model because the values of regression coefficient obtained for zero order release profiles are higher as compared to first order kinetics. […] The cube root dissolution rate constant (KH) of Hixson Crowell values of PD is 0.124 and optimized formulation F6 is 0.713. During dissolution, the radius of the particle, mass of the particle was changed. […]

[3] = tested on: herpes simplex virus (HSV) infected vero cells; test: In vitro MTT antiviral assay; format: cell-based; settings: 0.01 to 100 μ/mL
[4] = cited from earlier work
[5] = cited from earlier work; remark: listed apart in the source
human plasma proteins = settings: cited from earlier work
UGT1A1 = molecular target: T1, UGT1A1 (Homo sapiens, UniProt P22309); settings: cited from earlier work
T1 sequence (P22309 26-533): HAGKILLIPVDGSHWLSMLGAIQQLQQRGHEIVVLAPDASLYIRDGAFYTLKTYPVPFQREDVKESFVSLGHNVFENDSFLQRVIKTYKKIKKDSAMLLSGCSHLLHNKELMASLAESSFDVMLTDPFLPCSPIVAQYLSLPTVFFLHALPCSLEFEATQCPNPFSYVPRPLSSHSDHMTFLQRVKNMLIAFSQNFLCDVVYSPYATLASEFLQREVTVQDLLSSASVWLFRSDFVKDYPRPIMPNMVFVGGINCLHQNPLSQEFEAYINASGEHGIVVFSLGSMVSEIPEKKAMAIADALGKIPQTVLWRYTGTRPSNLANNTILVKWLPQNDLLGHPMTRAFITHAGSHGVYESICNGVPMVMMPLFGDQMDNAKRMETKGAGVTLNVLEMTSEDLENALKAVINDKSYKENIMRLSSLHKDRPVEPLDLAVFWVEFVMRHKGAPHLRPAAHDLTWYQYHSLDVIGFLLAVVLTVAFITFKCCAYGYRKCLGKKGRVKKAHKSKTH

SMILES: C[C@@H]1CCO[C@H]2Cn3cc(C(=O)NCc4ccc(F)cc4F)c(=O)c(O)c3C(=O)N12 [PD, sodium (4R,12aS)-9-{[(2,4-difluorophenyl)methyl]carbamoyl}-4-methyl-6,8-dioxo-3,4,6,8,12,12a-hexahydro-2H-pyrido[1′, 2′:4,5]pyrazino[2,1-b][1,3]oxazin-7-olate]
- solubility [1]: 1.6 µg/mL
- T50 (time taken for 50% dissolution) [2]: 38.5 h
- % of Dolutegravir Sodium Release ([2]; 0 hr, pH 6.8 phosphate buffer): 0%
- % of Dolutegravir Sodium Release ([2]; 0.5 hr, pH 6.8 phosphate buffer): 7.38 ± 0.12%
- % of Dolutegravir Sodium Release ([2]; 1 hr, pH 6.8 phosphate buffer): 13.45 ± 0.14%
- % of Dolutegravir Sodium Release ([2]; 2 hr, pH 6.8 phosphate buffer): 15.27 ± 0.12%
- % of Dolutegravir Sodium Release ([2]; 3 hr, pH 6.8 phosphate buffer): 15.79 ± 0.19%
- % of Dolutegravir Sodium Release ([2]; 4 hr, pH 6.8 phosphate buffer): 16.92 ± 0.12%
- % of Dolutegravir Sodium Release ([2]; 5 hr, pH 6.8 phosphate buffer): 17.82 ± 0.09%
- % of Dolutegravir Sodium Release ([2]; 6 hr, pH 6.8 phosphate buffer): 18.33 ± 0.10%
- % of Dolutegravir Sodium Release ([2]; 7 hr, pH 6.8 phosphate buffer): 20.13 ± 0.12%
- % of Dolutegravir Sodium Release ([2]; 8 hr, pH 6.8 phosphate buffer): 20.27 ± 0.43%
- % of Dolutegravir Sodium Release ([2]; 9 hr, pH 6.8 phosphate buffer): 22.27 ± 0.12%
- % of Dolutegravir Sodium Release ([2]; 10 hr, pH 6.8 phosphate buffer): 22.45 ± 0.14%
- % of Dolutegravir Sodium Release ([2]; 11 hr, pH 6.8 phosphate buffer): 25.23 ± 0.13%
- % of Dolutegravir Sodium Release ([2]; 12 hr, pH 6.8 phosphate buffer): 26.45 ± 0.22%
- DE5 (dissolution efficiency) ([2]; at 5 h, pH 6.8 phosphate buffer): 14.80%
- Hixson Crowell (KH) ([2]; cube root dissolution rate constant): 0.124 mg^1/3/hr
- First order (K1) ([2]; dissolution rate constant): 0.018 h⁻¹
- Zero order (Ko) ([2]; dissolution rate constant): 1.566 mg/h
- Correlation Coefficient Values (r) First order ([2]; drug release kinetics fit): 0.845
- Correlation Coefficient Values (r) Hixson Crowell ([2]; drug release kinetics fit): 0.443
- Correlation Coefficient Values (r) Zero order ([2]; drug release kinetics fit): 0.812
- IC50 [3]: 57.9 ± 4.6 µg/mL
- Solubility: soluble in water ([4]; at 25° C.): 3500 µg/mL
- Particle Size ([4]; drug profile): 5 microns
- Cmax ([5]; absorption): 7.97-14.70 μm
- tmax ([5]; absorption): 0.5 to 2 h
- Clearance ([5]; in vivo): 1 L/h
- Half-life ([5]; in vivo): 14 h
- drug eliminated from urine ([5]; in vivo): 32%
- drug eliminated through feces ([5]; in vivo): 53%
- protein bound to human plasma proteins (human plasma proteins): > 98.9%
- primarily metabolized by (UGT1A1): UGT1A1
